Measurements from patent publication US20050220726A1, “Use of sugar esters in cosmetic and/or pharmaceutical preparations” (priority 2003, published 2005).

Columns and labels:
human fibroblasts [1] = experiment: Regenerative effect and detoxifying potential: GSH in human fibroblasts; format: cell-based; settings: conc. 0.001 % w/v; 3 days in test solution; against blank sample = 100
Procedure: Glutathione (GSH) is a special protein which is produced by the cells for protection against oxidative stress and environmental poisons, more particularly against heavy metals. The three amino acids involved in the reduced form of GSH are linked to special cytoplasmatic enzymes which need ATP for activation. An increase in the GSH concentration leads to an increase in the glutatione-S-transferase activity, a detoxifying enzyme. The stimulation for detoxification by the test substances was tested on human fibroblasts by measurement of the GSH. In a series of tests, fibroblasts were first incubated for 3 days at 37° C. in a nutrient solution and then for 3 days at the same temperature in a test solution. The protein content in the cells was then determined by the Bradford method and the GSH concentration by the Hissin method [cf. Analytical Biochem. 74, 214-226 1977]. The results are set out in Table 2, where they are expressed in %-rel. against a blank sample, and represent the results of 3 series of measurements with triple determination.

[2] = tested on: bacterial collagenase (clostridium histolyticum); experiment: Collagenase inhibition on FITC-marked gelatin; format: biochemical; settings: Conc. [w/v] 0.3; 60 mins. at 20° C.
Procedure: In the event of inflammation, skin proteases, for example collagenase, are released from the polymorphonuclear neutrophilic granulocytes or macrophages. A similar process takes place in the skin of elderly people on exposure to UV rays. As already mentioned, the proteases—also known as matrix metalloproteases (MMPs) through their content of central zinc ions—catalyze the fragmentation of connective tissue proteins. The test substances were tested for collagenase inhibition using bacterial collagenase (clostridium histolyticum) on gelatin marked with fluorochromium (FITC, Calbiochem) as a natural nutrient medium. The incubation time was 60 mins. at 20° C.; the hydrolysis of the substrate was monitored by fluorescence at 393 nm (excitation at 328 nm). The results are set out in Table 6 as the collagenase inhibition in %.

Propionibacterium acnes [3] = experiment: Agar diffusion method, inhibition zones; format: cell-based; settings: filter paper with 20 μl test substance; 18 to 24 h at 37° C., anaerobic
Procedure: (§1) The antibacterial activity of the test substances was tested by the diffusion method on agar plates or the agar dilution method. In this method, a round filter paper of defined diameter is first impregnated with the test solution and then applied to the surface of an agar plate inoculated beforehand with the test microorganisms. The size of the inhibition zones is then determined after defined times. In particular, it is possible by this method to determine the MIC (Minimum Inhibitory Concentration) as the lowest concentration of test substance with which complete inhibition of the microorganisms can be obtained.
(§2) Agar diffusion method. The inoculum was prepared using a fresh culture in a stationary growth phase (after ca. 18-24 h) in a BHI solution (brain-heart Infusion). The bacterial suspension was adjusted to 0.5 MacFarland units, corresponding to 1.5 10^8 colony-forming units (cfu)/ml; the suspension was then diluted with a sodium chloride solution (1:100) to adjust a value of 1.5 10^6 cfu/ml. Mueller-Hinton agar (Staphylococcus epidermidis, Staphylococcus aureus) and Wilkins-Chalgrens agar containing 5% by weight sheep's blood (Propionibacterium acnes) were then sterilized for 15 mins. at 121° C. and then placed in Petri dishes. 2 to 4 ml of the bacterial suspension were then added to the Petri dishes, followed by drying at room temperature. The filter papers were impregnated with 20 μl of the test substances and applied to the surface of the agar plates. The inoculated Petri dishes were incubated for 18 to 24 h at 37° C. (the Petri dishes containing Propionibacterium acnes under anaerobic conditions) and the antimicrobial activity was then determined by determination of the growth inhibition zones. The results are set out in Table 10 and represent the diameters of the inhibition zones in mm.

Staphylococcus aureus [4] = experiment: Agar diffusion method, inhibition zones; format: cell-based; settings: filter paper with 20 μl test substance; 18 to 24 h at 37° C.
Procedure: as §1, §2

[5] = tested on: Staphylococcus epidermidis; experiment: Agar diffusion method, inhibition zones; format: cell-based; settings: filter paper with 20 μl test substance; 18 to 24 h at 37° C.
Procedure: as §1, §2

human fibroblasts [6] = experiment: Anti-stress effect on UV-A-damaged fibroblasts; format: cell-based; settings: conc. 0.001 % w/v, + UV-A 20 J/cm^2; for Cell proteins: blank sample = 100; for GSH/proteins: blank sample = 100, blank + UV-A = 65
Procedure: UV-A radiation in the 320 to 400 nm range induces oxidative stress which is mainly produced by the activation of photosensitive biological components which in turn catalyze the formation of ROS-like superoxide anions, hydrogen peroxide and singlet oxygen atoms. The anti-UV-A effect was tested on fibroblasts because UV-A radiation penetrates through the dermis where it causes oxidative damage by lipoperoxidation of the cell membrane and a reduction in the content of reduced glutathione (GHS). To this end, human fibroblasts were cultivated as described in a), exposed to UV-A rays (20 J/cm^2) and the cell counts and the GSH content subsequently determined. The results are set out in Table 3, where they are expressed in %-rel. against a blank sample, and represent the results of 3 series of measurements with triple determination.

[7] = tested on: melanocytes (B16 cell line); experiment: Inhibition of melanin synthesis in B16 melanocytes; format: cell-based; settings: 3 days, blank value = 100
Procedure: Melanin is the pigment responsible for the color of the skin and hair. It is formed in special organelles, the melanosomes, which occur in the melanocytes of the basal layer of the human epidermis. The biosynthesis of melanin begins with the amino acid tyrosine which is oxidized to DOPA (dihydroxyphenylalanine) in the presence of tyrosinase. The DOPA then polymerizes to melanin. […] After incubation for 3 days at 37° C./5% CO2, the nutrient medium was replaced by a solution containing the test substances in various concentrations. After incubation for another 3 days, the cell protein content (Bradford's method) and the content of synthesized melanin were determined through the optical density of the homogenizate at 475 nm. The results are expressed in % against a blank value and are set out in Table 7.

Propionibacterium acnes [8] = experiment: Agar dilution method (MIC determination); format: cell-based; settings: 18 to 24 h at 37° C.
Procedure: as §1, with “obtained. Agar dilution method (MIC determination). Various agars were prepared as described above, test substances were added in various concentrations, homogenized and dried. The Petri dishes were then inoculated with quantities of 2 μl of the bacterial suspension. After each drying step the Petri dishes were incubated for 18 to 24 h at 37° C. […] The results represent the averages of double determinations.” for “obtained.”

Staphylococcus aureus [9] = experiment: Agar dilution method (MIC determination); format: cell-based; settings: 18 to 24 h at 37° C.
Procedure: as §1, with “obtained. Agar dilution method (MIC determination). Various agars were prepared as described above, test substances were added in various concentrations, homogenized and dried. The Petri dishes were then inoculated with quantities of 2 μl of the bacterial suspension. After each drying step the Petri dishes were incubated for 18 to 24 h at 37° C. […] The results represent the averages of double determinations.” for “obtained.”

[10] = tested on: Staphylococcus epidermidis; experiment: Agar dilution method (MIC determination); format: cell-based; settings: 18 to 24 h at 37° C.
Procedure: as §1, with “obtained. Agar dilution method (MIC determination). Various agars were prepared as described above, test substances were added in various concentrations, homogenized and dried. The Petri dishes were then inoculated with quantities of 2 μl of the bacterial suspension. After each drying step the Petri dishes were incubated for 18 to 24 h at 37° C. […] The results represent the averages of double determinations.” for “obtained.”

Q: Trehalose palmitate was tested. Which GSH/proteins (human fibroblasts [1]) did it give?
A: Its GSH/proteins is 125 %-rel.

Q: And the Collagenase inhibition [2]?
A: The Collagenase inhibition was 9 %-rel.

Q: And the “Inhibition zones, Propionibacterium acnes” value (Propionibacterium acnes [3])?
A: Its value is 0 mm.

Q: And the “Inhibition zones, Staphylococcus aureus” value (Staphylococcus aureus [4])?
A: The value was 14 mm.

Q: What about the “Inhibition zones, Staphylococcus epidermidis” value [5] of the same substance?
A: Its value is 11 mm.

Q: What about the Cell proteins (human fibroblasts [6]) of the same substance?
A: The Cell proteins was 124 %-rel.

Q: And the GSH/proteins (human fibroblasts [6])?
A: Its GSH/proteins is 87 %-rel.

Q: With Trehalose stearate as the substance, how does the Cell melanin ([7]; conc. 0.001 % w/v) read?
A: Its Cell melanin is 81 %-rel.

Q: And the Cell proteins ([7]; conc. 0.001 % w/v)?
A: Its Cell proteins is 97 %-rel.

Q: What about the Cell melanin ([7]; conc. 0.003 % w/v) of the same substance?
A: The Cell melanin was 41 %-rel.

Q: What about the Cell proteins ([7]; conc. 0.003 % w/v) of the same substance?
A: The Cell proteins was 93 %-rel.

Q: What about the GSH/proteins (human fibroblasts [1]) of the same substance?
A: Its GSH/proteins is 141 %-rel.

Q: And the “MIC, Propionibacterium acnes” value (Propionibacterium acnes [8])?
A: The value was 1250 µg/mL.

Q: And the “MIC, Staphylococcus aureus” value (Staphylococcus aureus [9])?
A: The value was over 10000 µg/mL.

Q: And the “MIC, Staphylococcus epidermidis” value [10]?
A: The value was 625 µg/mL.

Q: What about the “Inhibition zones, Propionibacterium acnes” value (Propionibacterium acnes [3]) of the same substance?
A: The value was 0 mm.

Q: What about the “Inhibition zones, Staphylococcus aureus” value (Staphylococcus aureus [4]) of the same substance?
A: Its value is 12 mm.

Q: What about the “Inhibition zones, Staphylococcus epidermidis” value [5] of the same substance?
A: The value was 11 mm.

Q: And the Cell proteins (human fibroblasts [6])?
A: Its Cell proteins is 124 %-rel.

Q: What about the GSH/proteins (human fibroblasts [6]) of the same substance?
A: Its GSH/proteins is 84 %-rel.
